Experimental findings from patent US8618289B2 (Ambit Biosciences Corporation, priority 2008, dated 2013) are described below.

Molecules are shown by their SMILES. Bounds are passed on as bounds.

In assay [1] the target is RAF kinases (Homo sapiens, UniProt P04049). As to conditions: read-out: RAF1 Kd; RAF1.
For assay [2], the target named is RAF kinases (Homo sapiens, UniProt P15056). As to conditions: read-out: BRAF WT Kd; BRAF WT.
For assay [3], the system named is MEK1 phosphorylation in the A375 human melanoma cell line. In words: cells. As to conditions: A-375, read-out: pMEK IC50.
The test system of another assay is A375 cells. As to the kind of experiment: cells. As to conditions: Homo sapiens, A-375, read-out: A375 Viability EC50.
Assay [4] deals with RAF kinases (Homo sapiens, UniProt P15056, V600E). In words: biochemical.
Chain of RAF kinases (Homo sapiens, UniProt P15056, V600E) (P15056 whole entry V600E): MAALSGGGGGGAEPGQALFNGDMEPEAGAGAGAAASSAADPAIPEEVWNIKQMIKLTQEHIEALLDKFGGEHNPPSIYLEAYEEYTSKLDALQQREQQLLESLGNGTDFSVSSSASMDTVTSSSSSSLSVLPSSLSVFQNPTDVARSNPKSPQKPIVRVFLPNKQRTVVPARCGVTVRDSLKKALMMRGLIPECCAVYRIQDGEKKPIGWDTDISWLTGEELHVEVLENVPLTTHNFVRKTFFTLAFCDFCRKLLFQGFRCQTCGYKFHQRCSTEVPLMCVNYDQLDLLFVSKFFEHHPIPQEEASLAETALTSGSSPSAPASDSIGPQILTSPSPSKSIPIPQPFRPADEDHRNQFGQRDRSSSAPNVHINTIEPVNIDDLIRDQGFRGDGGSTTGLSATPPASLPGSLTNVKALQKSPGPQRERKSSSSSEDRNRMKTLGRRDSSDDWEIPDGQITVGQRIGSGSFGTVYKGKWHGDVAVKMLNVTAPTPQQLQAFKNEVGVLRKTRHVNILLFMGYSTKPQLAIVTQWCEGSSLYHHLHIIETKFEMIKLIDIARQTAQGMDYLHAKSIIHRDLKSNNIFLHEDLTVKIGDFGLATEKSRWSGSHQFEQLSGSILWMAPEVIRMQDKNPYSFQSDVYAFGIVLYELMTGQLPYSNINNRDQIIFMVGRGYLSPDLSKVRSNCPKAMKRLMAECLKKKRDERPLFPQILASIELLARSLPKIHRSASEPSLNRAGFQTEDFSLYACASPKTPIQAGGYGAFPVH

Chain of RAF kinases (Homo sapiens, UniProt P04049) (P04049 whole entry): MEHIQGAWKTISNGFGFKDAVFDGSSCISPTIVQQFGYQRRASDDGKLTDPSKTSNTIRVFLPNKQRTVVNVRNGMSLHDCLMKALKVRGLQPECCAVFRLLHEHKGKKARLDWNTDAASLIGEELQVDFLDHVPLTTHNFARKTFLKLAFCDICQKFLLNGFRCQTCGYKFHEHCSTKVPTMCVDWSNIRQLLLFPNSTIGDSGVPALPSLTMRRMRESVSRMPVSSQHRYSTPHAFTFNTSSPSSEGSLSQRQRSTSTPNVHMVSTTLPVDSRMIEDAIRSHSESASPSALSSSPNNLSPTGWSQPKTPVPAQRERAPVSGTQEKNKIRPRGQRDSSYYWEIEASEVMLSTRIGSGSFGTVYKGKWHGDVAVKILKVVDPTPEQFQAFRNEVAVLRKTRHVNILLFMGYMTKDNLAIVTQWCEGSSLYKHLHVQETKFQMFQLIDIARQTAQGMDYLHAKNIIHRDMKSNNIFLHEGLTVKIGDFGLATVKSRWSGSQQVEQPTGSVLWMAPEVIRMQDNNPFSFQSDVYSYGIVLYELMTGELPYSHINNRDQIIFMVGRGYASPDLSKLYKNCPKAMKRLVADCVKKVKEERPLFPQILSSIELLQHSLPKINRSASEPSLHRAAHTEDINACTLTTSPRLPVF
Chain of RAF kinases (Homo sapiens, UniProt P15056) (P15056 whole entry): as the sequence (P15056 whole entry V600E) above, with E600V counted along it

Regarding `COc1cc2ncnc(Oc3cc(NC(=O)Nc4cc(C(F)(F)F)nn4-c4ccccc4)c(F)cc3F)c2cc1OC` [Ex 271, 1-(5-(6,7-dimethoxyquinazolin-4-yloxy)-2,4-difluorophenyl)-3-(1-phenyl-3-(trifluoromethyl)-1H-pyrazol-5-yl)urea], the values for the Kd on RAF kinases [1], at RAF kinases [2] and at RAF kinases [4] were > 1000 nM, > 1000 nM and 250 to 500 nM, respectively. In addition, in assay [3], the IC50 was < 250 nM. Moreover, the EC50 in the assay on A375 cells lay within 250 to 500 nM.

On to `COCCOc1cc2ncnc(Sc3cccc(NC(=O)Nc4ccc(C(F)(F)F)c(OC)c4)c3)c2cc1OC` [Ex 233, 1-(3-methoxy-4-(trifluoromethyl)phenyl)-3-(3-(6-methoxy-7-(2-methoxyethoxy)quinazolin-4-ylthio)phenyl)urea], for which the Kd at RAF kinases [1] is > 1000 nM; at RAF kinases [2] it was > 1000 nM; at RAF kinases [4], 500 to 1000 nM. In addition, the IC50 in assay [3] is > 1000 nM. Moreover, in the assay on A375 cells, the EC50 was > 1000 nM.

Take `COc1cc2ncnc(Oc3cccc(NC(=O)Nc4cc(C(C)(C)CN5CCOCC5)on4)c3)c2cc1OC` [Ex 302, 1-(3-(6,7-dimethoxyquinazolin-4-yloxy)phenyl)-3-(5-(2-methyl-1-morpholinopropan-2-yl)isoxazol-3-yl)urea]: the Kd on RAF kinases [1] was > 1000 nM; at RAF kinases [2], > 1000 nM; on RAF kinases [4], 250 to 500 nM. Moreover, the IC50 in assay [3] was > 1000 nM. Moreover, the EC50 in the assay on A375 cells is > 1000 nM.

As to `COc1cc2ncnc(Oc3cccc(NC(=O)Nc4cc(C(C)(C)C)nn4-c4ccc(C)cc4)c3C)c2cc1OC` [Ex 288, 1-(3-tert-butyl-1-p-tolyl-1H-pyrazol-5-yl)-3-(3-(6,7-dimethoxyquinazolin-4-yloxy)-2-methylphenyl)urea], the Kd was > 1000 nM at RAF kinases [1], > 1000 nM at RAF kinases [2] and 250 to 500 nM at RAF kinases [4]. Further, in assay [3], the IC50 was < 250 nM.

`COc1cc2ncnc(Oc3cc(NC(=O)Nc4cc(C(C)(C)C)nn4-c4ccccc4)c(F)cc3F)c2cc1OC` [Ex 273, 1-(3-tert-butyl-1-phenyl-1H-pyrazol-5-yl)-3-(5-(6,7-dimethoxyquinazolin-4-yloxy)-2,4-difluorophenyl)urea]: the figures for the Kd at RAF kinases [1], on RAF kinases [2] and at RAF kinases [4] were > 1000 nM, > 1000 nM and 500 to 1000 nM, respectively. Further, the IC50 in assay [3] was < 250 nM.

Take `COc1cc2ncnc(Sc3cccc(NC(=O)Nc4cc(C(C)(C)C)nn4-c4cccc(C)c4)c3)c2cc1OC` [Ex 286, 1-(3-tert-butyl-1-m-tolyl-1H-pyrazol-5-yl)-3-(3-(6,7-dimethoxyquinazolin-4-ylthio)phenyl)urea]: the equilibrium dissociation constant (Kd) was > 1000 nM at RAF kinases [1], > 1000 nM at RAF kinases [2] and 250 to 500 nM on RAF kinases [4]. The half-inhibitory concentration (IC50) in assay [3] is < 250 nM.

As for `COc1ccc(-n2nc(C(C)(C)C)cc2NC(=O)Nc2cccc(Sc3ncnc4cc(OC)c(OC)cc34)c2)cc1` [Ex 362, 1-(3-tert-butyl-1-(4-methoxyphenyl)-1H-pyrazol-5-yl)-3-(3-(6,7-dimethoxyquinazolin-4-ylthio)phenyl)urea], the Kd at RAF kinases [1] is > 1000 nM; at RAF kinases [2], > 1000 nM; at RAF kinases [4], 500 to 1000 nM. In assay [3], the IC50 was < 250 nM.

For the compound `COCCOc1cc2ncnc(Sc3cccc(NC(=O)Nc4cc(C(C)(C)C)nn4-c4cccc(C)c4)c3)c2cc1OC` [Ex 287, 1-(3-tert-butyl-1-m-tolyl-1H-pyrazol-5-yl)-3-(3-(6-methoxy-7-(2-methoxyethoxy)quinazolin-4-ylthio)phenyl)urea], the figures for the dissociation constant Kd at RAF kinases [1], at RAF kinases [2] and at RAF kinases [4] were > 1000 nM, > 1000 nM and 500 to 1000 nM, respectively. In addition, the concentration for half-maximal inhibition (IC50) in assay [3] is < 250 nM.

Turning to `COc1cc2ncnc(Sc3cccc(NC(=O)Nc4cc(C(C)(C)C)nn4-c4ccc(Cl)cc4)c3)c2cc1OC` [Ex 366, 1-(3-tert-butyl-1-(4-chlorophenyl)-1H-pyrazol-5-yl)-3-(3-(6,7-dimethoxyquinazolin-4-ylthio)phenyl)urea], the dissociation constant (Kd) on RAF kinases [1] was > 1000 nM; at RAF kinases [2], > 1000 nM; on RAF kinases [4], 250 to 500 nM. Moreover, in assay [3], the IC50 was < 250 nM.

As for `COc1cc2ncnc(Sc3cccc(NC(=O)Nc4cc(C(C)(C)C)nn4-c4ccccc4C(F)(F)F)c3)c2cc1OC` [Ex 375, 1-(3-tert-butyl-1-(2-(trifluoromethyl)phenyl)-1H-pyrazol-5-yl)-3-(3-(6,7-dimethoxyquinazolin-4-ylthio)phenyl)urea], the Kd on RAF kinases [1] is > 1000 nM; on RAF kinases [2], > 1000 nM; at RAF kinases [4] it was 500 to 1000 nM. For the same compound, the IC50 in assay [3] is < 250 nM.

As for `COc1cc2ncnc(Oc3ccc(F)c(NC(=O)Nc4cc(C(C)(C)C)nn4-c4ccccc4)c3)c2cc1OC` [Ex 368, 1-(3-tert-butyl-1-phenyl-1H-pyrazol-5-yl)-3-(5-(6,7-dimethoxyquinazolin-4-yloxy)-2-fluorophenyl)urea], the values for the Kd on RAF kinases [1], on RAF kinases [2] and at RAF kinases [4] were > 1000 nM, > 1000 nM and 500 to 1000 nM, respectively. Besides, the IC50 in assay [3] is < 250 nM.

Regarding `COc1cc2ncnc(Oc3cccc(NC(=O)Nc4cc(C(C)(C)C)nn4-c4ccc(C)cc4C)c3)c2cc1OC` [Ex 282, 1-(3-tert-butyl-1-(2,4-dimethylphenyl)-1H-pyrazol-5-yl)-3-(3-(6,7-dimethoxyquinazolin-4-yloxy)phenyl)urea], the dissociation constant (Kd) was > 1000 nM at RAF kinases [1], > 1000 nM on RAF kinases [2] and 500 to 1000 nM at RAF kinases [4]. Also, the IC50 in assay [3] was < 250 nM.

On to `COc1cc2ncnc(Oc3cccc(NC(=O)Nc4cc(C(C)(C)C)nn4-c4ccc(Cl)cc4)c3)c2cc1OC` [Ex 365, 1-(3-tert-butyl-1-(4-chlorophenyl)-1H-pyrazol-5-yl)-3-(3-(6,7-dimethoxyquinazolin-4-yloxy)phenyl)urea], for which the Kd at RAF kinases [1] was > 1000 nM; at RAF kinases [2] it was > 1000 nM; at RAF kinases [4], 250 to 500 nM. In addition, the IC50 in assay [3] was < 250 nM.

Take `COc1cc2ncnc(Oc3cc(NC(=O)Nc4cc(C(C)(C)C)nn4-c4ccc(C)cc4)c(F)cc3F)c2cc1OC` [Ex 272, 1-(3-tert-butyl-1-p-tolyl-1H-pyrazol-5-yl)-3-(5-(6,7-dimethoxyquinazolin-4-yloxy)-2,4-difluorophenyl)urea]: the dissociation constant Kd at RAF kinases [1] was > 1000 nM; on RAF kinases [2], > 1000 nM; at RAF kinases [4] it was 500 to 1000 nM. Besides, the IC50 in assay [3] is < 250 nM.

On to `COc1cc2ncnc(Oc3cccc(NC(=O)Nc4cc(C(C)(C)C)nn4-c4ccccc4C(F)(F)F)c3)c2cc1OC` [Ex 376, 1-(3-tert-butyl-1-(2-(trifluoromethyl)phenyl)-1H-pyrazol-5-yl)-3-(3-(6,7-dimethoxyquinazolin-4-yloxy)phenyl)urea], for which the figures for the Kd on RAF kinases [1], on RAF kinases [2] and at RAF kinases [4] were > 1000 nM, > 1000 nM and 500 to 1000 nM, respectively. Also, in assay [3], the IC50 was < 250 nM.

For `COc1cc2ncnc(Oc3cccc(NC(=O)Nc4cc(C(C)(C)C)nn4-c4cccc(C)c4)c3)c2cc1OC` [Ex 285, 1-(3-tert-butyl-1-m-tolyl-1H-pyrazol-5-yl)-3-(3-(6,7-dimethoxyquinazolin-4-yloxy)phenyl)urea], the Kd is > 1000 nM at RAF kinases [1], > 1000 nM at RAF kinases [2] and 250 to 500 nM on RAF kinases [4]. In addition, the IC50 in assay [3] was < 250 nM.

With `COc1cc2ncnc(Oc3cccc(NC(=O)Nc4cc(C(C)(C)C)nn4-c4ccc(C(F)(F)F)cc4)c3)c2cc1OC` [Ex 373, 1-(3-tert-butyl-1-(4-(trifluoromethyl)phenyl)-1H-pyrazol-5-yl)-3-(3-(6,7-dimethoxyquinazolin-4-yloxy)phenyl)urea], the Kd at RAF kinases [1] is > 1000 nM; on RAF kinases [2], > 1000 nM; on RAF kinases [4] it was 500 to 1000 nM. For the same compound, the IC50 in assay [3] is < 250 nM.

For the compound `COc1cc2ncnc(Sc3cccc(NC(=O)Nc4cc(C(C)(C)C)nn4-c4ccc(C)cc4)c3)c2cc1OC` [Ex 275, 1-(3-tert-butyl-1-p-tolyl-1H-pyrazol-5-yl)-3-(3-(6,7-dimethoxyquinazolin-4-ylthio)phenyl)urea], the results for the Kd on RAF kinases [1], on RAF kinases [2] and at RAF kinases [4] were > 1000 nM, > 1000 nM and 250 to 500 nM, respectively. Also, in assay [3], the IC50 was < 250 nM.

Turning to `COc1cc2ncnc(Oc3cccc(NC(=O)Nc4cc(C(C)(C)C)nn4-c4cccc(C(F)(F)F)c4)c3)c2cc1OC` [Ex 379, 1-(3-tert-butyl-1-(3-(trifluoromethyl)phenyl)-1H-pyrazol-5-yl)-3-(3-(6,7-dimethoxyquinazolin-4-yloxy)phenyl)urea], the Kd was > 1000 nM at RAF kinases [1], > 1000 nM on RAF kinases [2] and 250 to 500 nM at RAF kinases [4]. Besides, the IC50 in assay [3] is < 250 nM.

With `COc1cc2ncnc(Sc3cccc(NC(=O)Nc4cc(C5(C(F)(F)F)CC5)nn4-c4ccccc4)c3)c2cc1OC` [Ex 383, 1-(3-(6,7-dimethoxyquinazolin-4-ylthio)phenyl)-3-(1-phenyl-3-(1-(trifluoromethyl)cyclopropyl)-1H-pyrazol-5-yl)urea], the equilibrium dissociation constant (Kd) was > 1000 nM at RAF kinases [1], > 1000 nM on RAF kinases [2] and 250 to 500 nM on RAF kinases [4]. The IC50 in assay [3] is < 250 nM.

Take `COc1cc2ncnc(Sc3cccc(NC(=O)Nc4cc(C(C)(C)C)nn4-c4ccccc4F)c3)c2cc1OC` [Ex 371, 1-(3-tert-butyl-1-(2-fluorophenyl)-1H-pyrazol-5-yl)-3-(3-(6,7-dimethoxyquinazolin-4-ylthio)phenyl)urea]: the Kd on RAF kinases [1] is > 1000 nM; on RAF kinases [2] it was > 1000 nM; at RAF kinases [4], 250 to 500 nM. The IC50 in assay [3] was < 250 nM.

With `COc1cc2ncnc(Oc3cccc(NC(=O)Nc4cc(C(C)(C)C)nn4-c4ccc(C)cc4)c3)c2cc1OC` [Ex 274, 1-(3-tert-butyl-1-p-tolyl-1H-pyrazol-5-yl)-3-(3-(6,7-dimethoxyquinazolin-4-yloxy)phenyl)urea], the Kd is > 1000 nM on RAF kinases [1], > 1000 nM at RAF kinases [2] and 250 to 500 nM on RAF kinases [4]. Further, the IC50 in assay [3] was < 250 nM.

By Kd is commonly meant the constant that tells how readily two partners part at equilibrium. Usually IC50 stands for the concentration that gives 50% inhibition. One may read the EC50 as the concentration at which the effect is half-maximal.
